Source: paper PMC8235223, “Four New Chromones from the Endophytic Fungus Phomopsis asparagi DHS-48 Isolated from the Chinese Mangrove Plant Rhizophora mangle” (Marine Drugs, 2021)

Assays:
Type in all cases: cell-based
[1] = Cell viability (cytotoxicity) CCK-8 assay on murine splenocytes; details: female, BALB/c, mouse, murine splenocytes (spleen lymphocytes), CCK-8 method, mean of n = 3
Description: (§1) Female BALB/c mice (6–8 weeks old, 20 ± 2 g) were purchased from the Department of Laboratory Animal Science (Hainan Medicinal University, China). The mice were sacrificed by cervical dislocation, and their spleens were collected in complete RPMI 1640 medium, which was minced with surgical scissors in a germ-free condition. The suspension was then filtered through a sterile sieve mesh to obtain the single cell suspension. After centrifugation (1000 rpm at 4 °C for 5 min), the resulting cells were treated with erythrocytes lysis buffer, followed by washing twice with cold phosphate-buffered saline (PBS). Then, the cells were adjusted to the concentration of 5 × 10^6 cells/mL and resuspended in RPMI 1640 medium supplemented with 10% heat-inactivated fetal bovine serum (FBS).
Cell viability of compounds 1–8 were measured using the tetrazolium salt-based CCK-8 assay according to a previously described protocol with some modifications. Spleen lymphocytes were seeded into 96-well plates at a density of 2 × 10^6 cells/mL onto 96-well plates containing 100 μL of RPMI1640 complete medium (triplicate wells). Then, the cells were treated with 100 μL of various concentrations (3 μg/mL, 6 μg/mL, 12 μg/mL, 25 μg/mL, 50 μg/mL) of isolated compounds or cyclosporine (CsA) at 37 °C with a 5% CO2 incubator for 44 h. […] The optical density was measured at 450 nm on a microplate reader.

[2] = tested on: ConA-induced T murine splenic lymphocytes; test: ConA-induced T-cell proliferation, immunosuppressive assay (CCK-8); details: Mus musculus, Splenic lymphocyte; ConA-induced murine splenic T lymphocytes in vitro, n = 3
Description: as §1
(§2) Compounds 1–8 were evaluated for immunosuppressive activity against the proliferation of concanavalin A (ConA)-induced T and lipopolysaccharide (LPS)-induced B murine splenic lymphocyte in vitro using a CCK-8 method according to previously reported methods. Cyclosporine A was used as a positive control.

[3] = tested on: LPS-induced B murine splenic lymphocytes; test: LPS-induced B-cell proliferation, immunosuppressive assay (CCK-8); details: Mus musculus, Splenic lymphocyte; LPS-induced murine splenic B lymphocytes in vitro, n = 3
Description: as §1, §2

COC(=O)c1cc(OC)cc2oc3c(c(=O)c12)COC(C)(O)C3 (stereo not drawn) [Compound 5, Diaporchromone A]
IC50 at 44 h [1]: 47 µM
IC50 [2]: 34 µM
IC50 [3]: 117 µM
